Each structure is given as a SMILES string. Where “and” joins values, the source holds several entries; their conditions need not be identical. Identical values can stand only once. Toxic doses and inconclusive results are not listed.

For this assay, the system named is CD2F1 mice, L1210 leukemia ip, survival T/C. Description: NCI In Vivo Anticancer Drug Screen. Data for tumor model L1210 Leukemia (intraperitoneal) in CD2F1 (CDF1) mice. The following applies: endpoint: mean survival time, higher = longer survival. In outline: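 Activity against a transplanted murine tumor was judged by comparing the compound group with a vehicle group. The outcome in the treated animals was divided by that in the controls.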

[1] abbreviates: dose: 100.0 mg/kg/injection, schedule: Q01DX009 (ip), vehicle: saline with Tween-80.
The mark [2] stands for this setting: dose: 100.0 mg/kg/injection, schedule: Q04DX003 (ip), vehicle: saline with Tween-80.
[3] abbreviates: dose: 200.0 mg/kg/injection, schedule: Q01DX009 (ip), vehicle: saline with Tween-80.
Where [4] appears, read: dose: 200.0 mg/kg/injection, schedule: Q04DX003 (ip), vehicle: saline with Tween-80.
[5] abbreviates: dose: 400.0 mg/kg/injection, schedule: Q01DX009 (ip), vehicle: saline with Tween-80.
Setting [6] is: dose: 400.0 mg/kg/injection, schedule: Q04DX003 (ip), vehicle: saline with Tween-80.
Where [7] appears, read: dose: 100.0 mg/kg/injection, schedule: Q04DX003 (ip), vehicle: other.
Where [8] appears, read: dose: 200.0 mg/kg/injection, schedule: Q04DX003 (ip), vehicle: other.
Where [9] appears, read: dose: 400.0 mg/kg/injection, schedule: Q04DX003 (ip), vehicle: other.
The mark [10] stands for this setting: dose: 12.5 mg/kg/injection, schedule: Q01DX009 (ip), vehicle: saline with Tween-80.
The mark [11] stands for this setting: dose: 25.0 mg/kg/injection, schedule: Q01DX009 (ip), vehicle: saline with Tween-80.
Setting [12] is: dose: 50.0 mg/kg/injection, schedule: Q01DX009 (ip), vehicle: saline with Tween-80.
The mark [13] stands for this setting: dose: 200.0 mg/kg/injection, schedule: Q04DX003 (ip), vehicle: saline.
Where [14] appears, read: dose: 400.0 mg/kg/injection, schedule: Q04DX003 (ip), vehicle: saline.
The mark [15] stands for this setting: dose: 100.0 mg/kg/injection, schedule: Q04DX002 (ip), vehicle: saline with Tween-80.
Setting [16] is: dose: 200.0 mg/kg/injection, schedule: Q04DX002 (ip), vehicle: saline with Tween-80.
The mark [17] stands for this setting: dose: 50.0 mg/kg/injection, schedule: Q04DX002 (ip), vehicle: saline with Tween-80.

Consider `N=Cc1c(O)n(-c2ccccc2)c(=O)[nH]c1=O`, for which the T/C reads like this: under setting [1], 101 % of control; under setting [2], 94 % of control; under setting [3], 101 % of control; under setting [4], 92 % of control; under setting [5], 104 % of control; under setting [6], 97 % of control.

In the case of `O=P1(N(CCCl)CCCl)OCCC(OO)N1CCCl` (centres undefined), the T/C was 268 % of control (dose: 100.0 mg/kg/injection, schedule: Q01DX001 (ip), vehicle: DMSO); 281 % of control (dose: 100.0 mg/kg/injection, schedule: Q01DX001 (ip), vehicle: Klucel (hydroxypropylcellulose) (HPC)); 309 % of control (dose: 200.0 mg/kg/injection, schedule: Q01DX001 (ip), vehicle: Klucel (hydroxypropylcellulose) (HPC)); 163 % of control (dose: 400.0 mg/kg/injection, schedule: Q01DX001 (ip), vehicle: DMSO).

Consider `CC(=O)Nc1nc(Br)c2ccccc2c1-c1ccc(N)cc1`, for which the T/C is, setting by setting: (dose: 50.0 mg/kg/injection, schedule: Q04DX003 (ip), vehicle: other) 97 % of control; under setting [7], 94 % of control; under setting [8], 94 % of control; under setting [9], 102 % of control.

For the compound `NC(=S)NN=C1CCCCC1`, the T/C is 98 % of control (dose: 6.25 mg/kg/injection, schedule: Q01DX009 (ip), vehicle: saline with Tween-80); 96 % of control under setting [10]; 98 % of control under setting [11].

Turning to `O=C1OCSc2ccccc21`, the T/C is 108 % of control (dose: 25.0 mg/kg/injection, schedule: Q01DX009 (ip), vehicle: saline sonified); 102 % of control (dose: 50.0 mg/kg/injection, schedule: Q01DX009 (ip), vehicle: saline sonified); 102 % of control (dose: 100.0 mg/kg/injection, schedule: Q01DX009 (ip), vehicle: saline sonified); 100 % of control under setting [2]; 101 % of control under setting [4]; 97 % of control under setting [6].

With `Nc1ccc(I)cc1F`, the T/C is, setting by setting: under setting [2], 100 % of control; under setting [4], 104 % of control; under setting [6], 100 % of control.

For the compound `Cc1nc2ccc(Cl)cc2n1C`, the T/C runs as follows: under setting [12], 102 % of control; under setting [1], 102 % of control; under setting [3], 106 % of control.

For `CC1CCC2(C)CCC3(C)C4=CCC5C(C)(C)C(O)CCC5(C)C4CCC3(C)C2C1C` (centres undefined), the T/C by setting is: under setting [13], 89 % of control; under setting [14], 96 % of control.

Take `Nc1ccc(S(=O)(=O)O)c2ccccc12`: the T/C (dose: 50.0 mg/kg/injection, schedule: Q01DX009 (ip), vehicle: Klucel (hydroxypropylcellulose) (HPC)) was 86 % of control; the T/C (dose: 100.0 mg/kg/injection, schedule: Q01DX009 (ip), vehicle: Klucel (hydroxypropylcellulose) (HPC)) is 104 % of control; the T/C (dose: 100.0 mg/kg/injection, schedule: Q04DX003 (ip), vehicle: saline) was 97 % of control; the T/C (dose: 200.0 mg/kg/injection, schedule: Q01DX009 (ip), vehicle: Klucel (hydroxypropylcellulose) (HPC)) was 104 % of control; the T/C under setting [13] is 101 % of control; the T/C under setting [14] was 103 % of control.

In the case of `O=S1(=O)CC2(OCCO2)C1Cl` (centres undefined), the T/C is 95 % of control under setting [15] and 91 % of control under setting [16].

As for `NC(=O)OCCc1c2ccccc2[n+]([O-])c2ccccc12`, the T/C under setting [17] was 98 % of control; the T/C under setting [15] was 95 % of control; the T/C under setting [16] is 98 % of control; the T/C (dose: 400.0 mg/kg/injection, schedule: Q04DX002 (ip), vehicle: saline with Tween-80) is 95 % of control.

Regarding `O=[N+]([O-])c1ccc(NN=C2c3ccccc3Cc3ccccc32)c([N+](=O)[O-])c1`, the T/C (dose: 25.0 mg/kg/injection, schedule: Q04DX002 (ip), vehicle: saline with Tween-80) is 98 % of control; the T/C under setting [17] was 91 % of control; the T/C under setting [15] is 87 % of control.

In the case of `CC1=CC(O)(C2(O)C=C(C)CC(C)(C)C2)CC(C)(C)C1` (centres undefined), the T/C (dose: 100.0 mg/kg/injection, schedule: Q01DX009 (ip), vehicle: other) was 102 % of control; the T/C under setting [7] is 102 % of control; the T/C (dose: 200.0 mg/kg/injection, schedule: Q01DX009 (ip), vehicle: other) is 90 % of control; the T/C under setting [8] was 96 % of control; the T/C (dose: 400.0 mg/kg/injection, schedule: Q01DX009 (ip), vehicle: other) is 88 % of control; the T/C under setting [9] was 94 % of control.

On to `CN(Cc1c[nH]c2nc(N)nc(N)c2c1=O)c1ccc(C(=O)NC(CCC(=O)O)C(=O)O)cc1` (centres undefined), for which the T/C (dose: 0.5 mg/kg/injection, schedule: Q01DX005 (ip), vehicle: sodium bicarbonate) was 97 % of control and 98 % of control; the T/C (dose: 1.0 mg/kg/injection, schedule: Q01DX005 (ip), vehicle: distilled water + Tween-80) is 105 % of control; the T/C (dose: 1.0 mg/kg/injection, schedule: Q01DX005 (ip), vehicle: sodium bicarbonate) was 91 % of control and 108 % of control; the T/C (dose: 2.0 mg/kg/injection, schedule: Q01DX005 (ip), vehicle: distilled water + Tween-80) was 102 % of control; the T/C (dose: 2.0 mg/kg/injection, schedule: Q01DX005 (ip), vehicle: sodium bicarbonate) is 97 % of control and 103 % of control; the T/C (dose: 4.0 mg/kg/injection, schedule: Q01DX005 (ip), vehicle: distilled water + Tween-80) is 100 % of control. Moreover, the T/C (dose: 4.0 mg/kg/injection, schedule: Q01DX005 (ip), vehicle: sodium bicarbonate) is 121 % of control and 104 % of control; the T/C (dose: 8.0 mg/kg/injection, schedule: Q01DX005 (ip), vehicle: distilled water + Tween-80) is 97 % of control; the T/C (dose: 8.0 mg/kg/injection, schedule: Q01DX005 (ip), vehicle: sodium bicarbonate) is 101 % of control; the T/C (dose: 16.0 mg/kg/injection, schedule: Q01DX005 (ip), vehicle: distilled water + Tween-80) is 102 % of control; the T/C (dose: 16.0 mg/kg/injection, schedule: Q01DX005 (ip), vehicle: sodium bicarbonate) is 98 % of control and 102 % of control.

In the case of `O=C1C(c2ccccc2)=C(c2ccccc2)CC1O` (centres undefined), the T/C was 103 % of control under setting [2], 91 % of control under setting [4] and 103 % of control under setting [6].

For the compound `CC1CC(=O)C=C(O)C1` (centres undefined), the T/C under setting [2] was 93 % of control, the T/C under setting [4] is 93 % of control and the T/C under setting [6] is 93 % of control.

On to `O=Nc1sc2ccccc2c1O`, for which the T/C was 104 % of control under setting [2], 96 % of control under setting [4] and 96 % of control under setting [6].

For the compound `CN(C1=CC(=O)c2ccccc2C1=O)C1CCCCC1`, the T/C under setting [2] was 93 % of control, the T/C under setting [4] is 93 % of control and the T/C under setting [6] is 104 % of control.

On to `Cc1cc(CC(O)(C(F)(F)F)C(F)(F)F)cc(C(=O)O)n1`, for which the T/C under setting [2] was 98 % of control, the T/C under setting [4] is 107 % of control and the T/C under setting [6] was 87 % of control.

Turning to `CC(=O)N(CC(=O)O)c1ccccc1`, the T/C runs as follows: under setting [1], 98 % of control; under setting [3], 96 % of control; under setting [5], 96 % of control.

With `CCOC(=O)NNC(=O)OCC`, the T/C under setting [10] was 97 % of control; the T/C (dose: 12.5 mg/kg/injection, schedule: Q01DX009 (ip), vehicle: saline) was 90 % of control; the T/C under setting [11] was 96 % of control; the T/C (dose: 25.0 mg/kg/injection, schedule: Q01DX009 (ip), vehicle: saline) is 101 % of control; the T/C under setting [12] was 102 % of control; the T/C (dose: 50.0 mg/kg/injection, schedule: Q01DX009 (ip), vehicle: saline) is 105 % of control.

`C=C1C(O)C2(O)OCC34C(CC5C(C)=CC(=O)C(O)C5(C)C23)OC(=O)C(OC(=O)C(C)(O)CC)C14` (centres undefined): the T/C runs as follows: (dose: 0.25 mg/kg/injection, schedule: Q01DX009 (ip), vehicle: saline + alcohol) 98 % of control; (dose: 0.5 mg/kg/injection, schedule: Q01DX009 (ip), vehicle: saline + alcohol) 100 % of control; (dose: 1.0 mg/kg/injection, schedule: Q01DX009 (ip), vehicle: saline + alcohol) 102 % of control; (dose: 2.0 mg/kg/injection, schedule: Q01DX009 (ip), vehicle: saline + alcohol) 90 % of control.

As for `O=C(O)c1c(Cl)c(Cl)c(C(=O)O)c(Cl)c1Cl`, the T/C reads like this: under setting [2], 96 % of control; under setting [4], 96 % of control; under setting [6], 94 % of control.

The values above are taken from PubChem BioAssay AID256 (DTP/NCI, 2004).
